Among the data in patent US8138168B1 (Takeda Pharmaceutical Company Limited, priority 2007, dated 2012) are IC50 values, retold here.

This assay has as its target T1, Recombinant human renin (Homo sapiens, UniProt P00797).
T1 construct: isolate the active form (residues 67-406); made in house; host or cells: FreeStyle 293-F cells (transient expression of pcDNA3.1(+)/hREN)
T1 sequence (P00797 67-406): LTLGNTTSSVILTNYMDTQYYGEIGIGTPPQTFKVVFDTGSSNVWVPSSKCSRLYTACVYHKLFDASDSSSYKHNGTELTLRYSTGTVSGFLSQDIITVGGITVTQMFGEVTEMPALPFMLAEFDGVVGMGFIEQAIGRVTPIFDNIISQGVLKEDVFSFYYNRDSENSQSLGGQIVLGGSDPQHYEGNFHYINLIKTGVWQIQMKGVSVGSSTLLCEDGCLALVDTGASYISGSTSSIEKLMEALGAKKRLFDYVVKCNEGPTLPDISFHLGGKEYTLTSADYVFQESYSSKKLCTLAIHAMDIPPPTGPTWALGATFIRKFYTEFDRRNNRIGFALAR
Description: In vitro enzymatic activity assay of renin inhibitors (fluorogenic peptide substrate). It counts as biochemical. The conditions noted are these: read-out: IC50 of Exemplified Compounds Against Renin. The method in brief: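 Enzyme: recombinant human renin, 3 nM final, 10 min compound pre-incubation at 37 °C; buffer 50 mM Hepes pH 7.4 with 0.1 mg/mL BSA or extra 2% BSA; 5% DMSO.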

pIC50: −log10 of the molar value. Bounds are passed on as bounds.

Broadly, the pIC50 is the negative decadic logarithm of the IC50, by convention in mol/L. As to `COC(=O)[C@H](CC(C)C)NC(=O)N1CCCC(c2nc3ccccc3[nH]2)C1` (stereo partly drawn) [Compound 19, (2S)-methyl 2-(3-(1H-benzo[d]imidazol-2-yl)piperidine-1-carboxamido)-4-methylpentanoate], the pIC50 was below 6.00.

As for `COCCCn1c([C@@H]2CCCN(C(=O)C[C@H](N)Cc3ccc(-c4ccc(C(=O)NC5CC5)cc4)cc3)C2)nc2ccccc21` [Compound 134, 4′-((R)-2-amino-4-((R)-3-(1-(3-methoxypropyl)-1H-benzo[d]imidazol-2-yl)piperidin-1-yl)-4-oxobutyl)-N-cyclopropylbiphenyl-4-carboxamide], the pIC50 is above 7.00.

Regarding `COCCCn1c([C@@H]2CCCN(C(=O)C[C@H](N)Cc3ccc(-c4ccc5oc(=O)[nH]c5c4)cc3)C2)nc2c(F)cccc21` [Compound 460, 5-(4-((R)-2-amino-4-((R)-3-(4-fluoro-1-(3-methoxypropyl)-1H-benzo[d]imidazol-2-yl)piperidin-1-yl)-4-oxobutyl)phenyl)benzo[d]oxazol-2(3H)-one], the pIC50 was above 7.00.

On to `COCCCn1c([C@@H]2CCCN(C(=O)C[C@H](N)Cc3ccc(N4CCN(c5ccccc5)C(=O)C4)cc3)C2)nc2ccccc21` [Compound 233, 4-(4-((R)-2-amino-4-((R)-3-(1-(3-methoxypropyl)-1H-benzo[d]imidazol-2-yl)piperidin-1-yl)-4-oxobutyl)phenyl)-1-phenylpiperazin-2-one], for which the pIC50 is 6.00 to 7.00.

`CC(=O)NCCn1c([C@@H]2CCCN(C(=O)C[C@H](N)Cc3ccc(-c4ccc5oc(=O)[nH]c5c4)cc3)C2)nc2ccccc21` [Compound 467, N-(2-(2-((R)-1-((R)-3-amino-4-(4-(2-oxo-2,3-dihydrobenzo[d]oxazol-5-yl)phenyl)butanoyl)piperidin-3-yl)-1H-benzo[d]imidazol-1-yl)ethyl)acetamide]: the pIC50 is 6.00 to 7.00.

For the compound `COCCCn1c([C@@H]2CCCN(C(=O)[C@@H]3CN(S(=O)(=O)c4ccc5c(c4)OCCO5)C[C@H]3N)C2)nc2ccccc21` [Compound 337, ((3R,4S)-4-amino-1-(2,3-dihydrobenzo[b][1,4]dioxin-6-ylsulfony)pyrrolidin-3-yl)((R)-3-(1-(3-methoxypropyl)-1H-benzo[d]imidazol-2-yl)piperidin-1-yl)methanone], the pIC50 was below 6.00.

`COCCCn1c([C@@H]2CCCN(C(=O)[C@@H]3CN(S(=O)(=O)c4c(Cl)cc(Br)cc4Cl)C[C@H]3N)C2)nc2ccccc21` [Compound 339]: the pIC50 is 6.00 to 7.00.

Regarding `N[C@H](Cc1ccccc1)C(=O)N1CCCC(c2nc3ccccc3[nH]2)C1` (stereo partly drawn) [Compound 58, (2R)-1-(3-(1H-benzo[d]imidazol-2-yl)piperidin-1-yl)-2-amino-3-phenylpropan-1-one], the pIC50 is below 6.00.

As to `COCCCn1c(C2CCCN(C(=O)C[C@H](N)Cc3ccc4ccccc4c3)C2)nc2ccc(CO)cc21` (stereo partly drawn) [Compound 113, (3R)-3-amino-1-(3-(6-(hydroxymethyl)-1-(3-methoxypropyl)-1H-benzo[d]imidazol-2-yl)piperidin-1-yl)-4-(naphthalen-2-yl)butan-1-one], the pIC50 was 6.00 to 7.00.

With `COCCCn1c([C@@H]2CCCN(C(=O)[C@@H]3CN(S(=O)(=O)c4ccc(Cl)cc4Cl)C[C@H]3N)C2)nc2ccccc21` [Compound 350, ((3R,4S)-4-amino-1-(2,4-dichlorophenylsulfonyl)pyrrolidin-3-yl)((R)-3-(1-(3-methoxypropyl)-1H-benzo[d]imidazol-2-yl)piperidin-1-yl)methanone], the pIC50 is 6.00 to 7.00.

Take `COCCCn1c([C@@H]2CCCN(C(=O)[C@@H]3CN(C(=O)C(C)C)C[C@H]3N)C2)nc2ccccc21` [Compound 396, 1-((3S,4R)-3-amino-4-((R)-3-(1-(3-methoxypropyl)-1H-benzo[d]imidazol-2-yl)piperidine-1-carbonyl)pyrrolidin-1-yl)-2-methylpropan-1-one]: the pIC50 is below 6.00.

As to `N[C@@H](CC(=O)N1CCCC(c2nc3ccccc3[nH]2)C1)c1ccc([N+](=O)[O-])cc1` (stereo partly drawn) [Compound 33, (3S)-1-(3-(1H-benzo[d]imidazol-2-yl)piperidin-1-yl)-3-amino-3-(4-nitrophenyl)propan-1-one], the pIC50 was below 6.00.

Consider `COCCCn1c([C@@H]2CCCN(C(=O)C[C@H](N)Cc3ccc(-c4ccc[nH]4)cc3)C2)nc2ccccc21` [Compound 153, (R)-4-(4-(1H-pyrrol-2-yl)phenyl)-3-amino-1-((R)-3-(1-(3-methoxypropyl)-1H-benzo[d]imidazol-2-yl)piperidin-1-yl)butan-1-one], for which the negative logarithm of the IC50 (pIC50) is above 7.00.

For `COCCCn1c(C2CCCN(C(=O)C[C@H](N)Cc3ccc(Cl)cc3)C2)nc2ccccc21` (stereo partly drawn) [Compound 24, (3R)-3-amino-4-(4-chlorophenyl)-1-(3-(1-(3-methoxypropyl)-1H-benzo[d]imidazol-2-yl)piperidin-1-yl)butan-1-one], the pIC50 was 6.00 to 7.00.

As to `COCCCn1c([C@@H]2CCCN(C(=O)C[C@H](N)CNC(=O)c3ccc(Cl)cc3)C2)nc2ccccc21` [Compound 309, N-((S)-2-amino-4-((R)-3-(1-(3-methoxypropyl)-1H-benzo[d]imidazol-2-yl)piperidin-1-yl)-4-oxobutyl)-4-chlorobenzamide], the pIC50 was 6.00 to 7.00.

Take `COCCCn1c([C@@H]2CCCN(C(=O)C[C@H](N)Cc3ccc(-c4ccnc(O)c4)cc3)C2)nc2ccccc21` [Compound 437, (R)-3-amino-4-(4-(2-hydroxypyridin-4-yl)phenyl)-1-((R)-3-(1-(3-methoxypropyl)-1H-benzo[d]imidazol-2-yl)piperidin-1-yl)butan-1-one]: the pIC50 is above 7.00.

As for `COCCCn1c([C@@H]2CCCN(C(=O)C[C@H](N)Cc3ccc(-c4ccccc4C)cc3)C2)nc2ccccc21` [Compound 157, (R)-3-amino-1-((R)-3-(1-(3-methoxypropyl)-1H-benzo[d]imidazol-2-yl)piperidin-1-yl)-4-(2′-methylbiphenyl-4-yl)butan-1-one], the pIC50 is above 7.00.

Turning to `COCCCn1c([C@@H]2CCCN(C(=O)C[C@H](N)Cc3ccc(-c4ccc(C(=O)NC(C)(C)CO)cc4)cc3)C2)nc2ccccc21` [Compound 183, 4′-((R)-2-amino-4-((R)-3-(1-(3-methoxypropyl)-1H-benzo[d]imidazol-2-yl)piperidin-1-yl)-4-oxobutyl)-N-(1-hydroxy-2-methylpropan-2-yl)biphenyl-4-carboxamide], the pIC50 is above 7.00.

As for `CC[C@H](C)[C@H](N)C(=O)N1CCCC(c2nc3ccccc3[nH]2)C1` (stereo partly drawn) [Compound 48, (2S,3S)-1-(3-(1H-benzo[d]imidazol-2-yl)piperidin-1-yl)-2-amino-3-methylpentan-1-one], the negative logarithm of the IC50 (pIC50) is below 6.00.

Take `COCCCn1c([C@@H]2CCCN(C(=O)C[C@H](N)Cc3ccc(-c4ccc5c(c4)CC(=O)N5C)cc3)C2)nc2c(C)cccc21` [Compound 498, 5-(4-((R)-2-amino-4-((R)-3-(1-(3-methoxypropyl)-4-methyl-1H-benzo[d]imidazol-2-yl)piperidin-1-yl)-4-oxobutyl)phenyl)-1-methylindolin-2-one]: the pIC50 is above 7.00.

On to `NC1(C(=O)N2CCCC(c3nc4ccccc4[nH]3)C2)CCC1` (stereo not shown) [Compound 59, (3-(1H-benzo[d]imidazol-2-yl)piperidin-1-yl)(1-aminocyclobutyl)methanone], for which the pIC50 is below 6.00.

`COCCCn1c([C@@H]2CCCN(C(=O)[C@@H]3CN(C(=O)c4ccc(OC)cc4)C[C@H]3N)C2)nc2ccccc21` [Compound 394, ((3R,4S)-4-amino-1-(4-methoxybenzoyl)pyrrolidin-3-yl)((R)-3-(1-(3-methoxypropyl)-1H-benzo[d]imidazol-2-yl)piperidin-1-yl)methanone]: the pIC50 was below 6.00.

`COCCCn1c([C@@H]2CCCN(C(=O)[C@@H]3CN(S(=O)(=O)c4cccc5ccccc45)C[C@H]3N)C2)nc2ccccc21` [Compound 354, ((3R,4S)-4-amino-1-(naphthalen-1-ylsulfonyl)pyrrolidin-3-yl)((R)-3-(1-(3-methoxypropyl)-1H-benzo[d]imidazol-2-yl)piperidin-1-yl)methanone]: the pIC50 was 6.00 to 7.00.

As to `COCCCn1c([C@@H]2CCCN(C(=O)C[C@H](N)Cc3ccc(-n4ccccc4=O)cc3)C2)nc2ccccc21` [Compound 207], the pIC50 was 6.00 to 7.00.

Take `COCCCn1c(C2CCCN(C(=O)C[C@H](N)c3ccccc3)C2)nc2ccccc21` (stereo partly drawn) [Compound 66, (3S)-3-amino-1-(3-(1-(3-methoxypropyl)-1H-benzo[d]imidazol-2-yl)piperidin-1-yl)-3-phenylpropan-1-one]: the pIC50 is below 6.00.

As for `COCCCn1c([C@@H]2CCCN(C(=O)C[C@H](N)CNC(=O)Nc3ccccc3C(C)C)C2)nc2ccccc21` [Compound 301, 1-((S)-2-amino-4-((R)-3-(1-(3-methoxypropyl)-1H-benzo[d]imidazol-2-yl)piperidin-1-yl)-4-oxobutyl)-3-(2-isopropylphenyl)urea], the pIC50 is 6.00 to 7.00.

For the compound `COCCCn1c([C@@H]2CCCN(C(=O)C[C@H](N)CNC(=O)Nc3ccc(OC)cc3OC)C2)nc2ccccc21` [Compound 279, 1-((S)-2-amino-4-((R)-3-(1-(3-methoxypropyl)-1H-benzo[d]imidazol-2-yl)piperidin-1-yl)-4-oxobutyl)-3-(2,4-dimethoxyphenyl)urea], the pIC50 is 6.00 to 7.00.

With `COCCCn1c([C@@H]2CCCN(C(=O)C[C@H](N)CNC(=O)c3cccnc3Oc3ccccc3)C2)nc2ccccc21` [Compound 299, N-((S)-2-amino-4-((R)-3-(1-(3-methoxypropyl)-1H-benzo[d]imidazol-2-yl)piperidin-1-yl)-4-oxobutyl)-2-phenoxynicotinamide], the pIC50 is 6.00 to 7.00.
